The subject of this test is cell-mediated immunity (D.T.H. to picryl chloride). Briefly: D.T.H. to picryl chloride in mice bearing Ascites Sarcoma 180 tumor, Test Example 2 (2). The format is in vivo, CDF1 mice. The note with it: for Increased thickness of auricles / T/C (%): Table 4, 6 times/day, Day 1 to Day 8; for T/C (%): control = 100. The protocol: (2) D.T.H. to picryl chloride
In mice bearing Ascites Sarcoma 180 tumor, the effect of arphamenine A on D.T.H. to picryl chloride as antigen was investigated. Thus, 10^6 cells of Ascites Sarcoma 180 were transplanted intraperitoneally into CDF1 mice (12-week-old, female, 6 mice per group). The day of this transplantation was designated as Day 0. On Day 1, a shaved area (25 mm×15 mm) of the abdomen of the mice was immunized with 0.6 ml of a solution of 6% picryl chloride in ethanol which had been absorbed to a mass of cut absorbent cotton (20 mm×20 mm×2 mm in size). On Day 8, the thickness of the auricles of both ears was measured with a dial gauge to obtain a baseline value (a). Then, both auricles were elicited for the D.T.H. response with a solution of 1% picryl chloride in olive oil which had been absorbed to a mass of cut absorbent cotton (10 mm×4 mm×1 mm in size). On Day 9, the swelling degree on the elicited auricles was measured with a dial gauge to obtain a value (b). The baseline value (a) was subtracted from the value (b) to determine an increase in the thickness of the auricles (b-a) in the control group of mice (c).
Separately, 0.5, 0.05 or 0.005 mg/kg of the test compound dissolved in physiological saline was orally administered to another group of CDF1 mise 6 times/day for consecutive days of from Day 1 to Day 8 inclusive, and then the picryl chloride elicitation was carried out with the treated group of mice in the same way as in the control group of mice. The increase in the thickness of both auricles (b'-a') in this treated group of mice (T) was determined in the same way as the control group of mice.
The rate (T/C, %) of the increased thickness of auricles of the treated group (T) in term of that for the control group (c) was calculated from the following equation [formula]
Assumed that the value for the control group was evaluated to be 100%, the activity of the test compound to potentiate cell-mediated immunity was estimated.

In the case of `N=C(N)NCCCC(N)C(=O)CC(Cc1ccccc1)C(=O)O` (stereo not shown) [Arphamenine A], where the note is “0.05 mg/kg”, the “activity to enhance cell-mediated immunity (in words)” value is “a significant activity to enhance cell-mediated immunity was obtained”. In addition, the “Increased thickness of auricles” value reads like this: (0.005 mg/kg orally) 6.40 ± 0.63 × 0.1 mm; (0.05 mg/kg orally, *P <0.05) 7.40 ± 0.72 × 0.1 mm; (0.5 mg/kg orally) 6.05 ± 0.97 × 0.1 mm. Also, the “T/C (%)” value runs as follows: (0.005 mg/kg orally) 143.8%; (0.05 mg/kg orally) 166.3%; (0.5 mg/kg orally) 136.0%.
